For this assay, the system named is HRV14. Nature of the assay: Inhibitory activity against human rhinovirus infection and replication (quantitative real-time PCR). Type of assay: cell-based. The following applies: Human rhinovirus sp., MRC5; 100 nmol/L test compound; MRC-5 cells infected with HRV14 at MOI=0.2; 48 hours; viral load normalized to 18s rRNA; read-out: Percent Inhibition. As to the method:
Evaluation of inhibitory activity against human rhinovirus infection and replication (by quantitative real-time PCR)
A required amount of a test compound was weighed off and dissolved in dimethyl sulfoxide (DMSO) to yield a 10 mmol/L stock solution. Next, the stock solution was diluted with a medium for viral infection (minimum essential medium (MEM) supplemented with 2% fetal bovine serum, 5% Tryptose phosphate broth, and 30 mmol/L MgCl2) to prepare 100 nmol/L and 1000 nmol/L of test compound solutions. MRC-5 (human fetal lung fibroblast: ATCC) was suspended at a density of 30000 cells/mL in cell culture medium (MEM supplemented with 10% fetal bovine serum), and 625 μL of the suspension per well was seeded into a 24-well cell culture plate and cultured at 37° C. in 5% CO2. After 72 hours, it was confirmed that the plate had become 80% confluent. The plate was washed with 625 μL of phosphate-buffered physiological saline (Ca/Mg-free; PBS-) once, and 625 μL of the test compound solution prepared just before use was immediately added to the plate. After 30 minutes, the medium was removed followed by addition of 187.5 μL of the test compound solution that had been prepared such that the cells were infected with HRV14 (ATCC) at multiplicity of infection (MOI)=0.2. The cells were then cultured at 35° C. in 5% CO2. After additional 2 hours, 625 μL of the test compound solution prepared just before use was added, and the cells were cultured at 35° C. in 5% CO2. After 48 hours, the cells were washed with 625 μL of PBS- once, and total RNA was extracted from the cells using RNeasy (R) plus kit (Qiagen) according to the manufacturer's instruction. Subsequently, cDNA was synthesized using High-Capacity cDNA Reverse Transcription Kit (Thermo Fisher Scientific). Finally, quantitative real-time PCR was performed in 7500 Fast Real-time PCR system (Life technologies) to measure HRV14 and 18s rRNA. The measurement protocol consisted of the initial denaturation phase at 95° C. for 20 seconds followed by 40 cycles of the denaturation step at 95° C. for 3 seconds and the annealing/elongation step at 60° C. for 30 seconds. The primers used were HRV14 forward primer set forth in SEQ ID NO: 1 and HRV14 reverse primer set forth in SEQ ID NO: 2, and the probe is set forth in SEQ ID NO: 3.
18s rRNA was measured using Eukaryotic 18S rRNA Endogenous Control (Applied Biosystems). According to Equation 1, 18s ribosomal RNA was used as an internal standard to normalize the viral load of HRV14: Viral load of HRV14=The amount of HRV14 in virus-infected cells/the amount of 18s rRNA in virus-infected cells Equation 1
Inhibitory activity of test compounds was calculated as a percent inhibition (%) according to Equation 2: Percent inhibition (%)=[the viral load of HRV in virus-infected cells in the absence of the test compound −the viral load of HRV in virus-infected cells in the presence of the test compound]/[the viral load of HRV in virus-infected cells in the absence of the test compound]×100 Equation 2
The results of using 100 nmol/L test compound solutions were shown in the tables below according to Examples. In the tables, percent inhibition was expressed as follows: percent inhibition >80%: +++, 80%≥percent inhibition >50%: ++, and 50%≥percent inhibition:+.
Background: Real-time PCR tracks product formation cycle by cycle.
Broadly, the inhibition is the change of the read-out against control, counted positive when it falls. With `Cc1nc2sc(C(C)(C)O)nn2c1-c1ccc(C(F)(F)F)c(S(=O)(=O)[C@H]2C[C@@H](O)C2)c1` [Example 2-46], the inhibition at 0.1 µM is > 80%.
With `Cc1nc2sc(C(C)(C)O)nn2c1-c1ccc(C(F)(F)F)c(S(=O)(=O)[C@H]2C[C@H](O)C2)c1` [Example 2-47] the figure was > 80%; with `COc1ccc(-c2c(C)nc3sc(C(C)(C)O)nn23)cc1S(=O)(=O)C1COC1` [Example 2-49], ≤ 50%; with `COc1ccc(-c2c(C)nc3sc(C(C)(C)O)nn23)cc1S(=O)(=O)CC(C)(C)CO` [Example 2-50], ≤ 50%.
For `COc1ccc(-c2c(C)nc3sc(C(C)(C)O)nn23)cc1S(=O)(=O)C1CN(C(=O)OC(C)(C)C)C1` [Example 2-51] the value was > 80%.
With `Cc1nc2sc(C(C)(C)O)cn2c1-c1ccc(C(F)(F)F)c(S(=O)(=O)CC(C)(C)O)c1` [Example 2-52] the figure was ≤ 50%; with `[2H]C([2H])([2H])C(O)(CS(=O)(=O)c1cc(-c2c(C)nc3sc(C(C)(C)O)nn23)ccc1OC)C([2H])([2H])[2H]` [Example 2-53], 50 to 80%; with `COc1ccc(-c2c(C)nc3sc(C(C)(C)O)nn23)cc1S(=O)(=O)[C@H]1C[C@@H](O)C1` [Example 2-54], ≤ 50%.
As for `COc1ccc(-c2c(C)nc3sc(C(C)(C)O)nn23)cc1S(=O)(=O)[C@H]1C[C@@](C)(O)C1` [Example 2-55], the inhibition at 0.1 µM was ≤ 50%.
For `COc1ccc(-c2c(C)nc3sc(C(C)(C)O)nn23)cc1S(=O)(=O)[C@H]1C[C@H](O)C1` [Example 2-56] the value was ≤ 50%.
With `CCOc1ccc(-c2c(C)nc3sc(C(C)(C)O)nn23)cc1S(=O)(=O)CC(C)(C)O` [Example 2-57] the figure was 50 to 80%.
With `[2H]C([2H])([2H])Oc1ccc(-c2c(C)nc3sc(C(C)(C)O)nn23)cc1S(=O)(=O)CC(C)(C)O` [Example 2-58] the figure was 50 to 80%; with `COc1ccc(-c2c(C)nc3sc(C(C)(C)O)nn23)cc1S(=O)(=O)CC(C)(O)CO` (stereo not drawn) [Example 2-59], ≤ 50%; with `COc1ccc(-c2c(C)nc3sc(C(C)(C)O)nn23)cc1S(=O)(=O)CC(C)(C)C#N` [Example 2-60], ≤ 50%.
For `COc1ccc(-c2c(C)nc3sc(C(C)(C)O)nn23)cc1S(=O)(=O)[C@@H]1CC[C@@H](O)C1` [Example 2-62], the inhibition at 0.1 µM is ≤ 50%.
For the compound `COc1ccc(-c2c(C)nc3sc(C(C)(C)O)nn23)cc1S(=O)(=O)CC1(O)CCC1` [Example 2-63], the inhibition at 0.1 µM was ≤ 50%.
With `COc1ccc(-c2c(C)nc3sc(C(C)(C)O)nn23)cc1S(=O)(=O)CC1(O)CCC(F)(F)CC1` [Example 2-64] the figure was > 80%; with `COc1ccc(-c2c(C)nc3sc(C(C)(C)O)nn23)cc1S(=O)(=O)C1CC2(COC2)C1` [Example 2-65], > 80%.
With `COc1ccc(-c2c(C)nc3sc(C(C)(C)O)nn23)cc1S(=O)(=O)C1(C(C)(C)O)CC1` [Example 2-66] the figure was > 80%.
In the case of `COc1ccc(-c2c(C)nc3sc(C(C)(C)O)nn23)cc1S(=O)(=O)C1(C(C)(C)O)CC(F)(F)C1` [Example 2-67], the inhibition at 0.1 µM is > 80%.
Take `COc1ccc(-c2c(C)nc3sc(C(C)(C)O)nn23)cc1S(=O)(=O)C1CCC2(CC1)OCCO2` [Example 2-68]: the inhibition at 0.1 µM was in the range of 50 to 80%.
For `COc1ccc(-c2c(C)nc3sc(C(C)(C)O)nn23)cc1S(=O)(=O)C1CC(F)(F)C1` [Example 2-69] the value was 50 to 80%; for `COc1ccc(-c2c(C)nc3sc(C(C)(C)O)nn23)cc1S(=O)(=O)[C@@H]1CC[C@](C)(O)C1` [Example 2-70], ≤ 50%; for `COc1ccc(-c2c(C)nc3sc(C(C)(C)O)nn23)cc1S(=O)(=O)[C@H]1C[C@@H](C(C)(C)O)C1` [Example 2-71], > 80%.
With `COc1ccc(-c2c(C)nc3sc(C(C)(C)O)nn23)cc1S(=O)(=O)[C@]1(C2CC2)C[C@H](O)C1` [Example 2-72] the figure was ≤ 50%; with `COc1ccc(-c2c(C)nc3sc(C(C)(C)O)nn23)cc1S(=O)(=O)[C@H]1C[C@](C)(C(C)(C)O)C1` [Example 2-73], > 80%.
With `COc1ccc(-c2c(C)nc3sc(C(C)(C)O)nn23)cc1S(=O)(=O)[C@H]1C[C@@](C)(C(C)(C)O)C1` [Example 2-74] the figure was ≤ 50%.
On to `COc1ccc(-c2c(C)nc3sc(C(C)(C)O)nn23)cc1S(=O)(=O)[C@]1(C)C[C@H](O)C1` [Example 2-75], for which the inhibition at 0.1 µM is ≤ 50%.
For `COc1ccc(-c2c(C)nc3sc(C(C)(C)O)nn23)cc1S(=O)(=O)[C@H]1C[C@](C)(O)C1` [Example 2-76] the value was > 80%.
For `Cc1nc2sc(C(C)(C)O)nn2c1-c1ccc(C(F)(F)F)c(S(=O)(=O)[C@H]2C[C@](C)(O)C2)c1` [Example 2-77] the value was > 80%; for `COc1ccc(-c2c(C)nc3sc(C(C)(C)O)nn23)cc1S(=O)(=O)[C@H]1C[C@@H]1C(C)(C)O` [Example 2-78], ≤ 50%.
With `COc1ccc(NS(=O)(=O)c2cc(-c3c(C)nc4sc(C(C)(C)O)cn34)ccc2OC)cc1` [Example 2-79] the figure was 50 to 80%.
`COc1ccc(-c2c(C)nc3sc(C(C)(C)O)cn23)cc1S(=O)(=O)Nc1cccc(O)c1` [Example 2-80]: the inhibition at 0.1 µM is ≤ 50%.
With `COc1ccc(-c2c(C)nc3sc(C(C)(C)O)cn23)cc1S(=O)(=O)Nc1ccccc1O` [Example 2-81] the figure was > 80%.
For `COc1ccc(-c2c(C)nc3sc(C(O)(C4CC4)C4CC4)nn23)cc1S(=O)(=O)[C@H]1C[C@](C)(O)C1` [Example 2-82] the value was > 80%; for `Cc1nc2sc(C(C)(C)O)nn2c1-c1cc2c(c(S(=O)(=O)CC(C)(C)O)c1)OCC2` [Example 2-83], 50 to 80%.
With `COc1ccc(-c2c(C)nc3sc(C(O)(C4CC4)C4CC4)nn23)cc1S(=O)(=O)C1CN(C(=O)OC(C)(C)C)C1` [Example 2-84], the inhibition at 0.1 µM is > 80%.
With `COc1ccc(-c2c(C)nc3sc(C(C)(C)O)nn23)cc1S(=O)(=O)Nc1cccnc1` [Example 2-85] the figure was ≤ 50%; with `COc1ccc(-c2c(C)nc3sc(C(C)(C)O)nn23)cc1S(=O)(=O)Nc1ccc(O)cc1` [Example 2-86], > 80%.
For `Cc1nc2sc(C(O)(C3CC3)C3CC3)nn2c1-c1ccc(C(F)(F)F)c(S(=O)(=O)CC(C)(C)O)c1` [Example 2-87] the value was > 80%; for `[2H]C([2H])([2H])Oc1ccc(-c2c(C)nc3sc(C(C)(C)O)cn23)cc1S(=O)(=O)N[C@H]1CC[C@@H](O)CC1` [Example 2-88], ≤ 50%.
For `[2H]C([2H])([2H])Oc1ccc(-c2c(C)nc3sc(C(C)(C)O)nn23)cc1S(=O)(=O)N[C@H]1CC[C@@H](O)CC1` [Example 2-89], the inhibition at 0.1 µM fell in the range of 50 to 80%.
As for `[2H]C([2H])([2H])Oc1ccc(-c2c(C)nc3sc(C4CC4)nn23)cc1S(=O)(=O)NC(C)(C)CO` [Example 2-90], the inhibition at 0.1 µM is > 80%.
With `COc1ccc(-c2c(C)nc3sc(C(C)(C)O)nn23)cc1S(=O)(=O)Cc1ccccc1` [Example 2-91] the figure was > 80%.
For `COc1ccc(-c2c(C)nc3sc(C(C)(C)O)nn23)cc1S(=O)(=O)Cc1ccc(F)cc1` [Example 2-92] the value was 50 to 80%.
In the case of `COc1ccc(-c2c(C)nc3sc(C(C)(C)O)nn23)cc1S(=O)(=O)Cc1ccc(C#N)cc1` [Example 2-93], the inhibition at 0.1 µM was in the range of 50 to 80%.
With `COc1ccc(-c2c(C)nc3sc(C(C)(C)O)nn23)cc1S(=O)(=O)Cc1cccnc1` [Example 2-94] the figure was 50 to 80%; with `COc1ccc(-c2c(C)nc3sc(C(C)(C)O)nn23)cc1S(=O)(=O)Cc1ccncc1` [Example 2-95], 50 to 80%.
